Consider 14 compounds from patent US4138423A, “N-dithio carbamoyl oximes” (priority 1976, dated 1979).

Values after ≈ are worked out from the molar mass of the structure shown.

Data set [1] concerns house flies. The data set is described as follows: Fly Bait Test. As to conditions: Musca domestica, read-out: Fly LD50.
Protocol: The test concentrations in parts per million by weight employed in the tests described hereinbelow were obtained by appropriate dilutions of the stock suspension with water. The test procedures were as follows:
Four to six day old adult house flies (Musca domestica, L.) reared according to the specifications of the Chemical Specialities Manufacturing Association (Blue Book, McNair-Dorland Co., N.Y. 1954; pages 243-244, 261) under controlled conditions of 80±5° F. and 50±5 percent relative humidity, were the test insects. The flies were immobilized by anesthetizing with carbon dioxide and twenty five immobilized individuals,males and females, were transferred to a cage consisting of a standard food strainer about five inches in diameter which was inverted over a wrapping-paper-covered surface. […] Ten milliliters of the test formulation were added to a souffle cup containing a one-inch square of an absorbent cotton pad. This bait cup was introduced and centered on the blotting paper under the food strainer prior to admitting the anesthetized flies. The caged flies were allowed to feed on the bait for twenty four hours, at a temperature of 80±5° F. and the relative humidity of 50±5 percent.
(§3) The test procedures described above were employed in these experiments in order to determine the LD50 (number of parts per million of active ingredients required to achieve fifty percent mortality of the insects tested) for each of the compositions tested.
The subject of data set [2] is southern armyworm. The data set is described as follows: Southern Armyworm Leaf Spray Test. The note with it: Spodoptera eridania, read-out: Armyworm LD50.
Protocol: The thus-prepared stock suspension contained 0.5 percent by weight of compound. The test concentrations in parts per million by weight employed in the tests described hereinbelow were obtained by appropriate dilutions of the stock suspension with water. The test procedures were as follows:
Larvae of the southern armyworm (Prodenia eridania, (Cram.)), reared on Tendergreen bean plants at a temperature of 80±5° F. and a relative humidity of 50±5 percent, constituted the test insects.
Potted Tendergreen bean plants of standard height and age were placed on a revolving turntable and sprayed with 100-110 milliliters of test compound formulation by use of a DeVilbiss spray gun set at 10 psig air pressure. This application, which lasted 25 seconds, was sufficient to wet plants to run-off. As a control, 100-110 milliliters of a water-acetone-emulsifier solution containing no test compound were also sprayed on infested plants. When dry, the paired leaves were separated and each one was placed in a 9 centimeter Petri dish lined with moistened filter paper. Five randomly selected larvae were introduced into each dish and the dishes were closed. The closed dishes were labeled and held at 80-85° F. for three days. Although the larvae could easily consume the whole leaf within twenty-four hours, no more food was added. Larvae which were unable to move the length of the body, even upon stimulation by prodding, were considered dead. Percent mortality was recorded for various concentration levels.
as §3
Data set [3] is described as follows: peroral toxicity to mammals (rat). The note with it: in vivo, po, peroral, Table I, read-out: A.O. Rat. LD50. How it is done:
(§1) Certain of these compositions were also evaluated to determine their peroral toxicity to mammals. The animal selected for this experiment was the rat. The test results obtained are expressed in terms of the number of milligrams of compositions per kilogram of weight of the animal required to achieve a mortality rate of 50 percent (LD50).

The subject of data set [4] is Mexican bean beetle. The data set is described as follows: Mexican Bean Beetle Leaf Spray Test. The note with it: Epilachna varivestis, read-out: Beetle LD50. On the procedure:
(§2) The test procedures were as follows:
The closed dishes were labeled and held at a temperature of 80±5° F. for three days. Although the larvae could easily consume the leaf within 24 to 48 hours, no more food was added.

Data set [5] concerns bean aphid. Briefly: whole plant or invertebrate. As to conditions: foliar, read-out: Aphid LD50.
In data set [6] the test system is two-spotted mite. Briefly: Mite Foliage Spray Test. The note with it: Tetranychus urticae, foliar, read-out: Mite LD50. How it is done: as §2
Adults and nymphal stages of the two-spotted mite (Tetranychus urticae Koch), reared on Tendergreen bean plants at 80±5° percent relative humidity, were the test organisms. Infested leaves from a stock culture were placed on the primary leaves of two bean plants six to eight inches in height, growing in a two- and-a-half inch clay pot. 150-200 mites, a sufficient number for testing, transferred from the excised leaves to the fresh plants in a period of twenty four hours. Following the twenty four hour transfer period, the excised leaves were removed from the infested plants. […] The sprayed plants were held at 80±5 percent relative humidity for six days, after which a mortality count of motile forms was made. […] Any individual which was capable of locomotion upon prodding was considered living.

The test system of data set [7] is rat. Briefly: peroral toxicity to mammals (rat). As to conditions: in vivo, po. How it is done:
as §1

Data set [8] deals with cotton, tomatoes, beans and corn. Briefly: phytotoxicity to crops. As to conditions: compared with N-methyl carbamate compounds.

In the case of `CSC(C)=NOC(=O)N(C)SSC(C)(C)C` [Example I, 1-Methylthioacetaldehyde O-[N-methyl-N-(2-methyl-2-propanethiosulfenyl)carbamoyl]oxime], the LC50 in data set [1] amounted to 4 µg/mL (≈ 14.2 µM); in data set [2], 6 µg/mL (≈ 21.2 µM); in data set [4], 40 µg/mL (≈ 142 µM). The LD50 – broadly, the dose at which mortality reaches 50% – in data set [3] amounted to 143 mg/kg.

Turning to `CSC(C)=NOC(=O)N(C)SSC(C)(C)C` [Example II (Table II)], the LC50 in data set [5] is 1.3 µg/mL (≈ 4.6 µM); in data set [6] it was more than 500 µg/mL. Regarding `CSC(C)=NOC(=O)N(C)SSC1CCCCC1` [Example II, 1-Methylthioacetaldehyde O-[N-methyl-N-(cyclohexanethiosulfenyl)carbamoyl]oxime], the median lethal dose (LD50) in data set [3] worked out at 101 mg/kg.

Turning to `CC(=NOC(=O)N(C)SSC(C)(C)C)SC(C)C` [Example III (Table II)], the values for the LC50 in data set [5] and in data set [6] were 9 µg/mL (≈ 29 µM) and 125 µg/mL (≈ 403 µM), respectively.

Turning to `CSC(C)=NOC(=O)N(C)SSc1ccc(Cl)cc1` [Example III, 1-Methylthioacetaldehyde O-[N-methyl-N-(4-chlorophenylthiosulfenyl)carbamoyl]oxime], the LD50 in data set [3] worked out at 160 mg/kg. Same read-out and setting: to `CC(=NOC(=O)N(C)SSC(C)C)SCCC#N` [IV] belongs 14.1 mg/kg. Still for that read-out and setting: as for `CSC(C)=NOC(=O)N(C)SSc1ccccc1` [IX, 1-Methylthioacetaldehyde O-[N-methyl-N-(phenylthiosulfenyl)carbamoyl]oxime], the figure is 143 mg/kg. `CNC(=O)ON=C(C)SC` [Methomyl, reference compound]: the LC50 is 4 µg/mL (≈ 24.7 µM) in data set [1], 11 µg/mL (≈ 67.8 µM) in data set [2], more than 500 µg/mL in data set [6] and 70 µg/mL (≈ 432 µM) in data set [4]. Further, the “Rat LD50” value in data set [7] was 48 mg/kg. Also, the “phytotoxicity to important economic crops” value in data set [8] is reported as “highly susceptible to phytotoxic injury”. Turning to `CSC(C)=NOC(=O)N(C)SSc1ccc(C)cc1` [X, 1-Methylthioacetaldehyde O-[N-methyl-N-(4-methylphenylthiosulfenyl)carbamoyl]oxime], the LD50 in data set [3] was found to be 63.5 mg/kg. The same measure, in the same setting: to `CC(=NOC(=O)N(C)SSC(C)(C)C)SCCC#N` [XIII] belongs 10 mg/kg. Take `CC(=NOC(=O)N(C)SSC(C)(C)C)SC(C)C` [XII]: the values for the LC50 in data set [1], in data set [2] and in data set [4] were 42 µg/mL (≈ 135 µM), 35 µg/mL (≈ 113 µM) and 31 µg/mL (≈ 99.8 µM), respectively. Further, the 50% lethal dose (LD50) in data set [3] stood at 30.8 mg/kg. On to `CSC(C)(C)C=NOC(=O)N(C)SSc1ccc(Cl)cc1` [XIV], for which the LD50 in data set [3] is 2 mg/kg. Still for that read-out and setting: to `CSC(C)=NOC(=O)N(C)SSc1ccc(C(C)(C)C)cc1` [XI] belongs 180 mg/kg; to `CSC(C)=NOC(=O)N(C)SSC(C)C` [XV], 113 mg/kg.
